Results published in ChEMBL document CHEMBL3885861, “Open TG-GATES”.

Organism: Rattus norvegicus
Test: Open TG-GATES - Regimen: Single
Assay type: toxicity, organism-based, Sprague-Dawley
Design: regimen Single, gender Male, age 6 weeks
Conditions: in vivo, po, 0 mg/kg, route gavage, dose level Control; for APTT / Bas / Eos / Fbg / Hb / Ht / Lym / MCH / MCHC / MCV / Mono / Neu / PT / Plat / RBC / Ret / WBC: tissue Blood; for KIDNEY_L / KIDNEY_R / KIDNEY_TOTAL: tissue Kidney; for LIVER: tissue Liver; for A/G / ALP / ALT / AST / BUN / CRE / Ca / Cl / DBIL / GLC / IP / K / LDH / Na / PL / RALB / TBIL / TC / TG / TP / gamma-GTP: tissue Plasma

Compound: NC(=O)N/N=C/c1ccc([N+](=O)[O-])o1 [NITROFURAZONE]
- TERMINAL_BW (3 h): 181.6 g
- APTT (3 h): 15.7 s
- Bas (3 h): 0%
- Eos (3 h): 0.6%
- Fbg (3 h): 250 mg/dL
- Hb (3 h): 12.7 g/dL
- Ht (3 h): 39.7%
- Lym (3 h): 79%
- MCH (3 h): 21.6 pg
- MCHC (3 h): 32%
- MCV (3 h): 67.7 fL
- Mono (3 h): 2.8%
- Neu (3 h): 17%
- PT (3 h): 14.7 s
- Plat (3 h): 114.3 x10_4/uL
- RBC (3 h): 586.4 x10_4/ul
- Ret (3 h): 10.9%
- WBC (3 h): 77.6 x10_2/uL
- KIDNEY_L (3 h): 0.8 g
- KIDNEY_R (3 h): 0.8 g
- KIDNEY_TOTAL (3 h): 1.6 g
- LIVER (3 h): 8.2 g
- A/G (3 h): 0.9
- ALP (3 h): 1508.2 IU/L
- ALT (3 h): 45.4 IU/L
- AST (3 h): 78 IU/L
- BUN (3 h): 9.8 mg/dL
- CRE (3 h): 0.2 mg/dL
- Ca (3 h): 11.3 mg/dL
- Cl (3 h): 104.8 meq/L
- DBIL (3 h): 0.012 mg/dL
- GLC (3 h): 179.2 mg/dL
- IP (3 h): 9.6 mg/dL
- K (3 h): 4.1 meq/L
- LDH (3 h): 49.8 IU/L
- Na (3 h): 141 meq/L
- PL (3 h): 141.8 mg/dL
- RALB (3 h): 2.4 g/dL
- TBIL (3 h): 0.056 mg/dL
- TC (3 h): 80.4 mg/dL
- TG (3 h): 54.6 mg/dL
- TP (3 h): 5.2 g/dL
- gamma-GTP (3 h): 1.2 IU/L
- TERMINAL_BW (6 h): 180.8 g
- APTT (6 h): 16.4 s
- Bas (6 h): 0.2%
- Eos (6 h): 0.6%
- Fbg (6 h): 266.6 mg/dL
- Hb (6 h): 12.7 g/dL
- Ht (6 h): 39.4%
- Lym (6 h): 73.2%
- MCH (6 h): 22.1 pg
- MCHC (6 h): 32.2%
- MCV (6 h): 68.6 fL
- Mono (6 h): 3%
- Neu (6 h): 21.8%
- PT (6 h): 14.6 s
- Plat (6 h): 118.4 x10_4/uL
- RBC (6 h): 576.2 x10_4/ul
- Ret (6 h): 11%
- WBC (6 h): 90.9 x10_2/uL
- KIDNEY_L (6 h): 0.8 g
- KIDNEY_R (6 h): 0.9 g
- KIDNEY_TOTAL (6 h): 1.7 g
- LIVER (6 h): 7.4 g
- A/G (6 h): 0.9
- ALP (6 h): 1461 IU/L
- ALT (6 h): 44.4 IU/L
- AST (6 h): 77.2 IU/L
- BUN (6 h): 8 mg/dL
- CRE (6 h): 0.2 mg/dL
- Ca (6 h): 11 mg/dL
- Cl (6 h): 105 meq/L
- DBIL (6 h): 0.01 mg/dL
- GLC (6 h): 169.8 mg/dL
- IP (6 h): 10.3 mg/dL
- K (6 h): 4.2 meq/L
- LDH (6 h): 61.4 IU/L
- Na (6 h): 140.6 meq/L
- PL (6 h): 132.2 mg/dL
- RALB (6 h): 2.4 g/dL
- TBIL (6 h): 0.062 mg/dL
- TC (6 h): 78.2 mg/dL
- TG (6 h): 36.2 mg/dL
- TP (6 h): 5.2 g/dL
- gamma-GTP (6 h): 1 IU/L
- TERMINAL_BW (9 h): 179.5 g
- APTT (9 h): 15.7 s
- Bas (9 h): 0%
- Eos (9 h): 0.6%
- Fbg (9 h): 260 mg/dL
- Hb (9 h): 12.7 g/dL
- Ht (9 h): 39.8%
- Lym (9 h): 75%
- MCH (9 h): 21.6 pg
- MCHC (9 h): 32%
- MCV (9 h): 67.5 fL
- Mono (9 h): 2.4%
- Neu (9 h): 21.4%
- PT (9 h): 14.5 s
- Plat (9 h): 109.4 x10_4/uL
- RBC (9 h): 590.6 x10_4/ul
- Ret (9 h): 10.5%
- WBC (9 h): 64.3 x10_2/uL
- KIDNEY_L (9 h): 0.8 g
- KIDNEY_R (9 h): 0.8 g
- KIDNEY_TOTAL (9 h): 1.6 g
- LIVER (9 h): 7.1 g
- A/G (9 h): 0.9
- ALP (9 h): 1214.2 IU/L
- ALT (9 h): 47.8 IU/L
- AST (9 h): 79.4 IU/L
- BUN (9 h): 8.8 mg/dL
- CRE (9 h): 0.2 mg/dL
- Ca (9 h): 11 mg/dL
- Cl (9 h): 105 meq/L
- DBIL (9 h): 0.012 mg/dL
- GLC (9 h): 169 mg/dL
- IP (9 h): 10.6 mg/dL
- K (9 h): 3.9 meq/L
- LDH (9 h): 55.2 IU/L
- Na (9 h): 142 meq/L
- PL (9 h): 139.4 mg/dL
- RALB (9 h): 2.4 g/dL
- TBIL (9 h): 0.062 mg/dL
- TC (9 h): 85.2 mg/dL
- TG (9 h): 25 mg/dL
- TP (9 h): 5.2 g/dL
- gamma-GTP (9 h): 1.4 IU/L
- TERMINAL_BW (24 h): 194.2 g
- APTT (24 h): 17.5 s
- Bas (24 h): 0%
- Eos (24 h): 0.8%
- Fbg (24 h): 246.6 mg/dL
- Hb (24 h): 13 g/dL
- Ht (24 h): 40.1%
- Lym (24 h): 76.8%
- MCH (24 h): 22 pg
- MCHC (24 h): 32.4%
- MCV (24 h): 67.8 fL
- Mono (24 h): 3.2%
- Neu (24 h): 18.6%
- PT (24 h): 14.8 s
- Plat (24 h): 111.2 x10_4/uL
- RBC (24 h): 592.4 x10_4/ul
- Ret (24 h): 9.7%
- WBC (24 h): 96.7 x10_2/uL
- KIDNEY_L (24 h): 0.8 g
- KIDNEY_R (24 h): 0.9 g
- KIDNEY_TOTAL (24 h): 1.7 g
- LIVER (24 h): 9 g
- A/G (24 h): 0.9
- ALP (24 h): 1711.4 IU/L
- ALT (24 h): 48.4 IU/L
- AST (24 h): 74.4 IU/L
- BUN (24 h): 14.8 mg/dL
- CRE (24 h): 0.2 mg/dL
- Ca (24 h): 11.3 mg/dL
- Cl (24 h): 104.8 meq/L
- DBIL (24 h): 0.012 mg/dL
- GLC (24 h): 177.6 mg/dL
- IP (24 h): 8 mg/dL
- K (24 h): 3.7 meq/L
- LDH (24 h): 61.2 IU/L
- Na (24 h): 142 meq/L
- PL (24 h): 149.2 mg/dL
- RALB (24 h): 2.5 g/dL
- TBIL (24 h): 0.044 mg/dL
- TC (24 h): 82.2 mg/dL
- TG (24 h): 72.4 mg/dL
- TP (24 h): 5.4 g/dL
- gamma-GTP (24 h): 1 IU/L
